# Measurements from patent US20210261636A1, “NEOANTIGENS EXPRESSED IN MULTIPLE MYELOMA AND THEIR USES” (Janssen Biotech, Inc., priority 2020, published 2021).
# Columns and labels:
# CD4+ T cells = assay: Exogenous autologous healthy donor restimulation assay, TNFα and IFNγ production by CD4+ T cells; type: cell-based, human; set-up: Frequency (TNFα+ IFNγ+ CD4 T cells): unit not given here; conditions: donor independent, peptide pool 10 μg/mL, healthy donors; for Fold change (CD4+) vs. DMSO: maximum CD4+ T-cell response (TNFα and IFNγ); for Frequency (TNFα+ IFNγ+ CD4 T cells): maximum CD4+ T-cell response
# Description: (§1) Immunogenicity responses were measured by estimating TNFα IFNγ double positive cells in the CD4+ and/or CD8+ T-cell populations. A response is considered positive if TNFα IFNγ double positive fraction was greater than or equal to three-fold over unstimulated cells (DMSO negative control) with a minimum frequency >=0.01%. […]
# (§2) Overlapping 15-mer peptides were designed to span each indicated neoantigen. Their ability to activate T cells was assessed using known methods, such as the assay defnied as exogenous autologous normal donor restimulation assay. The peptides were used as pools using TNFα and IFNγ production by CD8^+ and CD4^+ T cells as a readout. Maximum frequency of CD8^+TNFα^+IFNγ^+ and CD4^+TNFα^+IFNγ^+ T cells and maximum fold change over background for each pool of peptides were analyzed, which were calculated as the highest frequency of CD8^+ TNFα^+IFNγ^+ and CD4^+ TNFα^+IFNγ^+ T cells and resulting fold change across the normal donors evaluated for the peptide.
# (§3) CD1c+Dendritic Cells (CD1c+DC) isolated from human healthy PBMCs were thawed using media (IMDM (Gibco) supplemented with glutamine, HEPES, 5% human serum (Sigma), and 1× Pen-Strep). DC cells were resuspended in media supplemented with IL-4 (Peprotech, 20 ng/mL) and GM-CSF (Gibco, 20 ng/mL), plated in 6 well microplates, and rested overnight at 37° C. and 5% CO2 incubator. The following day, DC cells were counted and plated in a 96 well round bottom microplate at a concentration of 30,000 viable cells per well. Lyophilized neoantigen peptide pools (15-mer peptides with 8-mer overlapping peptide sequences) were solubilized in 100% DMSO with a stock concentration of 20 mg/mL Neoantigen peptides pools were added to DCs for a final concentration of 10 μg/mL and rested for 2 hours at 37° C. and 5% CO2 incubator. CEF Peptide Pool “Plus” (Cellular Technologies, Ltd.) was utilized as a positive control (each viral peptide at a final concentration of 4 ug/ml) and DMSO at the same final concentration (0.05%) as the experimental peptides was utilized as a negative control. After 2 hours, DC cells were irradiated with 50 gray of ionizing radiation. Autologous CD3+ Pan-T cells isolated from human normal PBMCs were thawed using media. Following irradiation, autologous Pan-T cells were added to the irradiated DCs at 300,000 viable cells per well. Human IL-15 (Peprotech) was added to all wells at final concentration of 10 ng/ml. Plates were incubated at 37° C. and 5% CO2 incubator for a total of 12 days. Media was refreshed every 2-3 days with IL-15 (R&D System, 10 ng/mL final concentration) and IL-2 (R&D systems, 10 IU/mL final concentration).
# (§4) On Day 11, cells were re-stimulated with identical experimental peptide pools or controls, at same concentration as peptide stimulation on Day 1. Protein Inhibitor Cocktail (eBioscience) was added to every well and plate was incubated overnight for 14-16 hours at 37° C. and 5% CO2 incubator. On Day 12, cells were stained for surface and intracellular flow cytometry analysis. The cells were washed with PBS and stained with Live/Dead Fixable Aqua Dead Cell stain (Thermo-Fisher). Following the live/dead stain, cells were blocked using Biotin-Free Fc Receptor Blocker (Accurate Chemical & Scientific Corp). Extracellular cellular flow panel (1 μL/antibody per well in 50 μL) consisted of CD3 PerCP-Cy5.5 (Biolegend), CD4 BV421 (Biolegend), and CD8 APC-Cy7 (Biolegend). After extracellular staining, cells were fixed and permeabilized using Foxp3/Transcription Factor Staining Buffer Set (eBioscience) and stained for intracellular proteins (1:50 dilution) using TNFα FITC (R&D Systems) and IFNγ BV785 (Biolegend). Cells were washed and resuspended in stain buffer, analyzed, and recorded in a BD Celesta flow cytometer.
# (§5) Flow cytometry analysis was conducted on FlowJo v10.6 software. Cells were gated on live, singlet, CD3+, CD4+ and CD8+ T cells. The CD8+ and CD4+ T cells were analyzed for TNFα and IFNγ expression. […]
# CD8+ T cells = assay: Exogenous autologous healthy donor restimulation assay, TNFα and IFNγ production by CD8+ T cells; type: cell-based, human; set-up: Frequency (TNFα+ IFNγ+ CD8 T cells): unit not given here; conditions: for Fold change (CD8+) vs. DMSO: maximum CD8+ T-cell response (TNFα and IFNγ); for Fold change (CD8+) vs. DMSO / Frequency (TNFα+ IFNγ+ CD8 T cells): donor independent, peptide pool 10 μg/mL, healthy donors; for Frequency (TNFα+ IFNγ+ CD8 T cells): maximum CD8+ T-cell response; for Immunogenic (yes/no): positive if CD8+ and/or CD4+ double positive TNFα/IFNγ frequency >=3-fold over DMSO and at least 0.01%
# Description: as §1, §2, §3, §4, §5
Sequence,Fold change (CD4+) vs. DMSO (CD4+ T cells),Frequency (TNFα+ IFNγ+ CD4 T cells) (CD4+ T cells),Fold change (CD8+) vs. DMSO (CD8+ T cells),Frequency (TNFα+ IFNγ+ CD8 T cells) (CD8+ T cells),Immunogenic (yes/no) (CD8+ T cells)
"SATTRSITGQDILSLEKERR [AS17, alternative splicing, DCC]",7.078,0.028,14.05,0.13,Yes
"CEIMPLQSYILL [AS37, alternative splicing, FAM13A]",576.132,0.21,17.37,0.32,Yes
"LGRLEEAKSFETEEN [AS121, alternative splicing, OGT]",1.41,0.02,194.72,0.59,Yes
"GEPGEDAGIGRPEEREREEEMADQ [AS135, alternative splicing, ZBP1]",3.73,0.03,2.68,0.092,No
"DVAVICSGRRSARDP [FUS4, gene fusion CD5L-> FCRL1]",7.13,0.029,3.1,0.04,No
"GGPPFVGPLRGPRAQPSLSGLCGRRTGSRDTIKIPGQT [FUS42, gene fusion RBM42-> ETV2]",9.54,0.11,14.72,0.027,Yes
"LEDKELGRISVCPWTEGLEKMEKTLLCSSSG [AS88, alternative splicing, CADPS2]",79.18,0.12,4.55,0.025,Yes
"DLNQDGYNGNLNQSVEVIYVSSPLHKGDHACFKVFSMVCVGAVIITDF [AS64, alternative splicing, ITGA8]",376.11,0.57,6.83,0.8,Yes
"IIMALAILDLFAVLKIEAHKQLLLKSFCYGAGK [AS113, alternative splicing, CLCC1]",5.7,0.009,5.07,0.38,Yes
"AAGVVTEIEAAVKA [FUS17, gene fusion HBS1L-> ALDH8A1]",2.11,0.012,5.31,0.13,Yes
"LTALLLLASTPTP [AS18, alternative splicing, FCRLB]",12.922,0.006,7.33,0.082,Yes
"FSMRPAFGETALGCKKW [AS19, alternative splicing, GABRR2]",23.16,0.12,140,0.031,Yes
"SSVTTHSSGNLRESPIYH [FUS32, gene fusion GANC-> CAPN3]",3.08,0.008,12.04,0.018,Yes
